Data from US10947260B2, “Phosphinolactone derivatives and pharmaceutical uses thereof” (INSTITUT NATIONAL DE LA SANTE ET DE LA RECHERCHE MEDICALE …, priority 2016, dated 2021).

Experiments:
[1] = test system: mice treated with peptide Aβ25-35; experiment: In vivo screening of derivatives as neuroprotectors (spontaneous alternation, passive avoidance, ROS level), Aβ25-35 model
Method: FIG. 7: Screening of phosphinolactones as neuroprotectors in mice treated with peptide Aβ25-35: (a) spontaneous alternation; (b) passive avoidance step-through latency; (c) Levels of reactive oxygen species in hippocampus. The mice were given compound 3b (0.3, 0.7 mg/kg IP) or a dose of each compound (0.3 mg/kg IP) 20 min before I′Aβ25-35 or the control peptide Sc.Aβ (9 nmol ICV). The animals were tested in the Y-maze on Day 7 after the ICV injections and for passive avoidance on Days 8-9, and then sacrificed. In each graph at (a-c), the 50% protection level compared with the deficit induced by Aβ25-35 is plotted as a dotted line. It is to be noted that at (a), the column represents the median and the error bars represent the deviations 25%-75% (=asymmetric deviations). n=12 at (a, b) and 5-6 at (c). ANOVA on groups 1-4: F(3.63)=7.95, p<0.001 at (b); H=24.1, p<0.0001 at (c); F(3.44)=6.33, p<0.01 at (d). *p<0.05, **p<0.01, ***p<0.001 compared with group (Sc.Aβ+V); #p<0.05, ##p<0.01, ###p<0.001 compared with group (Aβ25-35+V); Dunnett test at (a, c) and Dunn at (b). The values of the groups 5-12 (screened compounds) were analysed by t-test at (a, c) or Mann-Whitney at (b).
From the molecules derived from the synthesis, a panel of 8 derivatives was selected and screened for potential neuroprotective efficacy. The compounds were injected at a dose of 0.3 mg/kg IP, i.e. the maximum non-active dose of 3b and compared with 3b injected at 0.3 and 0.7 mg/kg IP. The compounds were injected […] before the Aß25-35 peptide, and the mice were tested for spontaneous alternation on Day 7, passive avoidance on Days 8 and 9 and the ROS level was measured in the hippocampus (FIG. 7). For each response (spontaneous alternation: FIG. 7a; step-through latency in passive avoidance: FIG. 7b, and DCF fluorescence level: FIG. 7c), a 50% level of the effect between the values of the ScAß and Aß25-35 animals was taken as criterion of efficacy. […] Compound 3c is an isomer at the position of the chlorine atom of 3b. Regarding compound 3n, this has a 5-pyrimidyl group attached to the phosphorus atom, and for compound 3l it is a 4-pyridinyl group.

[2] = test system: APPSwe mice; experiment: Spatial learning in pool, APPSwe mice; assay type: in vivo
Method: FIG. 9: Spatial learning in pool (a-c) and object recognition (d-f) for APPSwe mice after 2-month treatment with compound 3b. Pool: acquisition profiles of WT mice treated with V and 3b (2 mg/kg) (a) or APPSwe mice (b). (c) Presence in training quadrant (T) and mean in the other quadrants (o) during trial test performed 48 h after the last training session. Friedman non-parametric ANOVA with repeated measures: Fr=21.7, p<0.001 for the group WT/V, Fr=21.8, p<0.001 for the group WT/3b at (a); Fr=13.0, p<0.05 for group APPSwe/V, Fr=12.2, p<0.05 for group APPSwe/3b at (b). Object recognition: Number of contacts with the objects during sessions 2 and 3 (d) and preferences for object at position 2 computed as contacts (e) or contact time (f). ^∘ p<0.05, ^∘∘ p<0.01 compared with chance level: 15 s at (c), 50% at (e, f), One Sample t-test. ^$ p<0.05, ^$$ p<0.01, ^$$$ p<0.001 compared with the mean of the other quadrants (o) at (c). *p<0.05 compared with group WT/V at (d).
FIG. 11: Spatial learning in pool (a-c) and object recognition (d-f) for APPSwe mice after 2-month treatment with compound 3c. Pool: acquisition profiles of WT mice treated with V and 3c (2 mg/kg) (a) or APPSwe mice (b). (c) Presence in training quadrant (T) and mean in the other quadrants (o) during the trial test performed 48 h after the last training session. Friedman non-parametric ANOVA with repeated measures: Fr=20.7, p<0.001 for group WT/V, Fr=17.5, p<0.001 for group WT/3c at (a); Fr=11.4, p<0.05 for group APPSwe/V, Fr=13.6, p<0.01 for group APPSwe/3b at (b). […]
The pool was a circular water chamber (diameter 140 cm, height 40 cm). […] Swims could be recorded using Videotrack® ViewPoint software, (Champagne-au-Mont-d'Or, France), with trajectories analysed for time and distance. […]
Acquisition phase: this consisted of 3 swims per day for 5 days with an interval of 20 min. […] Swim latency was measured. […] The median of swim times was calculated for each day and expressed for the experimental group as a mean±SEM.
Recall phase: a trial test was conducted […] after the last acquisition session. […] The session was monitored by video and the time spent in the training quadrant (where the platform had been placed) was measured.
After 2-month treatment, the mice were examined with a complex long-term spatial learning test, the locating of an invisible platform in a circular pool 1.5 m in diameter, followed by the object recognition test. […] 48 h after the last acquisition session, the platform was withdrawn from the pool and the time spent in each of the quadrants of the pool was analysed. […]

Structure (SMILES)	criterion of efficacy: 50% level of the effect between ScAβ and Aβ25-35 animals (spontaneous alternation, step-through latency, DCF fluorescence) ([1]; 0.3 mg/kg IP)	efficacy compared with 3b ([1]; Aβ25-35 model)	efficiency in the screening of the molecules in the series ([1]; Aβ25-35 model)	spatial performance of WT mice at trial test ([2]; 1 mg/kg/d)	pool acquisition profile, APPSwe animals ([2]; 1 mg/kg/d, 2-month treatment)	presence in the training quadrant at trial test, APPSwe mice ([2]; 1 mg/kg/d, 48 h after last training)	maximum non-active dose of 3b ([1]; IP)	spatial performance of WT mice at trial test ([2]; 2 mg/kg/j IP)
CC1(C)COP(=O)(c2ccc(Cl)cc2)C(C)(C)N1 (racemic) [Compound 3c, (±)-2-(4-Chlorophenyl)-2-oxo-3,3,5,5-tetramethyl-[1,4,2]-oxazaphosphinane]	met the criterion for the 3 parameters	as effective at 0.3 mg/kg IP as 3b at 0.7 mg/kg IP	highly efficient	decrease is noted in spatial performance	did not affect the acquisition profile	significantly restored preferred presence in the training quadrant		
CC1(C)COP(=O)(c2cccc(Cl)c2)C(C)(C)N1 (racemic) [Compound 3b, (±)-2-(3-Chlorophenyl)-2-oxo-3,3,5,5-tetramethyl-[1,4,2]-oxazaphosphinane]							0.3 mg/kg	decrease is noted in spatial performance
